Laboratory results reported in ChEMBL document CHEMBL4602663, “Isocadiolides A-H: Polybrominated Aromatics from a Synoicum sp. Ascidian” (J Nat Prod, 2020).

Legend:
Staphylococcus aureus = assay: Antibacterial activity against Staphylococcus aureus ATCC 6538P assessed as reduction in microbial growth; assay type: functional
Salmonella enterica = assay: Antibacterial activity against Salmonella enterica ATCC 14028 assessed as reduction in microbial growth; assay type: functional
Proteus hauseri = assay: Antibacterial activity against Proteus hauseri NBRC 3851 assessed as reduction in microbial growth; assay type: functional
Enterococcus faecalis = assay: Antibacterial activity against Enterococcus faecalis ATCC 19433 assessed as reduction in microbial growth; assay type: functional
Klebsiella pneumoniae = assay: Antibacterial activity against Klebsiella pneumoniae ATCC 10031 assessed as reduction in microbial growth; assay type: functional
Sortase A = molecular target: T1, Sortase A (Staphylococcus aureus, UniProt Q9S446); assay: Inhibition of Staphylococcus aureus sortase A
T1 sequence (Q9S446 whole entry): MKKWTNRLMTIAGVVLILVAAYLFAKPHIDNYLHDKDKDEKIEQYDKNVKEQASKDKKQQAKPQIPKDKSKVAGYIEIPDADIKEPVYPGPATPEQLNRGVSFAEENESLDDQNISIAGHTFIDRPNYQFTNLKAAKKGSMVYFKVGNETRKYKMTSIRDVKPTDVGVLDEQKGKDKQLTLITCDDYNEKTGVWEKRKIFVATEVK

Enterococcus faecium = assay: Antibacterial activity against Enterococcus faecium ATCC 19434 assessed as reduction in microbial growth; assay type: functional
Isocitrate lyase = Isocitrate lyase (Candida albicans, UniProt Q9P8Q7); assay: Inhibition of Candida albicans ICL assessed as reduction in glyoxylate phenylhydrazone formation using M threo-DL(+)isocitrate as substrate incubated for 30 mins by spectrophotometric method
K562 = assay: Cytotoxicity against human K562 cells assessed as reduction in cell viability after 72 hrs by sulforhodamine B assay; assay type: functional, cell-based; settings: K562, 72 h
A549 = assay: Cytotoxicity against human A549 cells assessed as reduction in cell viability after 72 hrs by sulforhodamine B assay; assay type: functional, cell-based; settings: A549, 72 h

Sequence of Isocitrate lyase (Q9P8Q7 whole entry): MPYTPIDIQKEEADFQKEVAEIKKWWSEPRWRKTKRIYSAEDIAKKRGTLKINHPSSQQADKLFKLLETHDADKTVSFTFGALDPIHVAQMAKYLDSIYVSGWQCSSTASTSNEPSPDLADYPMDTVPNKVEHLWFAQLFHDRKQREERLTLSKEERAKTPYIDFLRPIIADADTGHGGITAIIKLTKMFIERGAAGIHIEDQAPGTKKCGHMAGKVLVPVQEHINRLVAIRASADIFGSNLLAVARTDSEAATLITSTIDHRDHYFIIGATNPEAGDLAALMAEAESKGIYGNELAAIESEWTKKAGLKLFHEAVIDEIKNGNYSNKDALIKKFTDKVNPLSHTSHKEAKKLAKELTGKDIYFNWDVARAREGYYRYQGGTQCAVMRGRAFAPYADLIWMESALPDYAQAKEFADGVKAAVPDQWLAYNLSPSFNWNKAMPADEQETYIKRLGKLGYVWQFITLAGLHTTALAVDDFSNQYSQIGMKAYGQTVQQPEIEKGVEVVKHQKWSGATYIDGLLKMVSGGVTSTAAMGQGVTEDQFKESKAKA

Structure (SMILES) | MIC (Staphylococcus aureus) [µg/mL] | MIC (Salmonella enterica) [µg/mL] | MIC (Proteus hauseri) [µg/mL] | MIC (Enterococcus faecalis) [µg/mL] | MIC (Klebsiella pneumoniae) [µg/mL] | IC50 (Sortase A) [µM] | MIC (Enterococcus faecium) [µg/mL] | IC50 (Isocitrate lyase) [µM] | IC50 (K562) [µM] | IC50 (A549) [µM]
COc1c(Br)cc([C@H](O)C2=C(c3ccc(O)c(Br)c3)/C(=C/c3cc(Br)c(O)c(Br)c3)OC2=O)cc1Br | 2 | 4 | 2 | 8 | > 128 | > 159 | > 128 | > 159 | – | –
COc1c(Br)cc([C@H](O)C2=C(c3cc(Br)c(O)c(Br)c3)/C(=C/c3ccc(O)c(Br)c3)OC2=O)cc1Br | 8 | 8 | 4 | 32 | > 128 | > 159 | > 128 | > 159 | – | –
O=C(O)CC[N+](=O)[O-] | – | – | – | – | – | – | – | 17 | – | –
COC(=O)C1=C(c2cc(Br)c(O)c(Br)c2)[C@](OC)(c2cc(Br)c(O)c(Br)c2)O[C@@]1(C(=O)OC)c1cc(Br)c(O)c(Br)c1 | 64 | > 128 | > 128 | > 128 | > 128 | > 133 | > 128 | 104 | > 10 | > 10
COC(=O)C1=C(c2cc(Br)c(O)c(Br)c2)C(=O)[C@](c2ccc(O)c(Br)c2)(c2cc(Br)c(O)c(Br)c2)C1=O | 16 | 64 | 64 | > 128 | > 128 | 70 | > 128 | 49 | > 10 | > 10
COC(=O)C1=C(c2cc(Br)c(O)c(Br)c2)C(=O)C(c2cc(Br)c(O)c(Br)c2)(c2cc(Br)c(O)c(Br)c2)C1=O | 16 | 64 | > 128 | 64 | > 128 | 67 | > 128 | 22 | > 10 | > 10
COc1ccc(/C=C2\OC(=O)C([C@@H](O)c3cc(Br)c(OC)c(Br)c3)=C2c2cc(Br)c(O)c(Br)c2)cc1Br | 32 | 64 | 8 | 64 | > 128 | > 156 | > 128 | 150 | – | –
COC(=O)C1=C(c2ccc(O)c(Br)c2)C(=O)[C@](c2ccc(O)c(Br)c2)(c2cc(Br)c(O)c(Br)c2)C1=O | 32 | 64 | 8 | > 128 | > 128 | 102 | > 128 | 47 | > 10 | > 10
COc1ccc(C[C@@]2(O)OC(=O)C([C@@H](O)c3cc(Br)c(OC)c(Br)c3)=C2c2cc(Br)c(O)c(Br)c2)cc1Br | 16 | 16 | 16 | 64 | > 128 | > 153 | > 128 | 63 | > 10 | > 10
COC(=O)C1=C(c2cc(Br)c(O)c(Br)c2)C(=O)[C@](OC)(c2ccc(O)c(Br)c2)O[C@]1(OC)c1cc(Br)c(O)c(Br)c1 | 64 | > 128 | > 128 | > 128 | > 128 | > 145 | > 128 | 127 | > 10 | > 10
COC(=O)C1=C(c2cc(Br)c(O)c(Br)c2)[C@](OC)(c2ccc(O)c(Br)c2)O[C@@]1(C(=O)OC)c1cc(Br)c(O)c(Br)c1 | 64 | 64 | 64 | 8 | > 128 | > 145 | > 128 | > 145 | > 10 | > 10
O=C1C=C(c2cc(Br)c(O)c(Br)c2)C(=O)C1(c1cc(Br)c(O)c(Br)c1)c1cc(Br)c(O)c(Br)c1 | 4 | 64 | > 128 | > 128 | > 128 | 88 | > 128 | 34 | > 10 | > 10
O=C(O)C1=C(c2ccc(O)c(Br)c2)C(=O)C(c2cc(Br)c(O)c(Br)c2)(c2cc(Br)c(O)c(Br)c2)C1=O | > 128 | > 128 | > 128 | > 128 | > 128 | > 159 | > 128 | 54 | > 10 | > 10
CC1(C)S[C@@H]2[C@H](NC(=O)[C@H](N)c3ccccc3)C(=O)N2[C@H]1C(=O)O [AMPICILLIN] | 0.03 | 0.06 | 0.03 | 0.5 | – | – | 0.5 | – | – | –
COc1ccc2cc3[n+](cc2c1OC)CCc1cc2c(cc1-3)OCO2 [BERBERINE CHLORIDE] | – | – | – | – | – | 102 | – | – | – | –
O=C1O/C(=C\c2cc(Br)c(O)c(Br)c2)C(c2cc(Br)c(O)c(Br)c2)=C1C(=O)c1cc(Br)c(O)c(Br)c1 [CADIOLIDE B] | 64 | > 128 | > 128 | > 128 | > 128 | 103 | > 128 | 61 | – | –
O=C1O/C(=C\c2ccc(O)c(Br)c2)C(c2ccc(O)c(Br)c2)=C1C(=O)c1cc(Br)c(O)c(Br)c1 [CADIOLIDE C] | 32 | 64 | > 128 | > 128 | > 128 | 59 | > 128 | 17 | – | –
O=C1O/C(=C\c2ccc(O)c(Br)c2)C(c2cc(Br)c(O)c(Br)c2)=C1C(=O)c1cc(Br)c(O)c(Br)c1 [CADIOLIDE D] | 64 | > 128 | > 128 | > 128 | > 128 | 34 | > 128 | 11 | – | –
O=C1O/C(=C\c2cc(Br)c(O)c(Br)c2)C(c2ccc(O)c(Br)c2)=C1C(=O)c1cc(Br)c(O)c(Br)c1 [CADIOLIDE E] | > 128 | > 128 | > 128 | > 128 | > 128 | > 162 | > 128 | 27 | – | –
O=C1C=C(c2cc(Br)c(O)c(Br)c2)/C(=C/c2cc(Br)c(O)c(Br)c2)O1 [RUBROLIDE A] | 32 | 32 | 16 | > 128 | > 128 | 216 | > 128 | > 216 | – | –
CN(C)[C@@H]1C(O)=C(C(N)=O)C(=O)[C@@]2(O)C(O)=C3C(=O)c4c(O)cccc4[C@@](C)(O)[C@H]3C[C@@H]12 [TETRACYCLINE] | – | – | – | – | 0.25 | – | – | – | – | –
